# Molecular target: truncated Polθ protein (Polθ-Hel containing the helicase domain (67-894)) (Homo sapiens (Human), UniProt O75417)
# Experiment: Polθ ATPase assay (Biological Assay 1, ADP-Glo luminescence)
# Format: biochemical
# Conditions: Polθ-Hel 0.5 nM, DNA substrate 500 nM, ATP 60 μM, 23° C.; read-out: Pole ATPase assay IC50
# How it was run: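 Polθ-Hel (0.5 nM) with 500 nM ssDNA oligo in pH 8.8 Tris buffer (5 mM MgCl2, 1 mM DTT) was preincubated with compound 30 min at 23 °C. The reaction ran 60 min after 60 μM ATP was added (stated as the added solution, not final). ADP formed was detected by ADP-Glo luminescence to derive IC50.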
# Chain of truncated Polθ protein (Polθ-Hel containing the helicase domain (67-894)) (O75417 67-894): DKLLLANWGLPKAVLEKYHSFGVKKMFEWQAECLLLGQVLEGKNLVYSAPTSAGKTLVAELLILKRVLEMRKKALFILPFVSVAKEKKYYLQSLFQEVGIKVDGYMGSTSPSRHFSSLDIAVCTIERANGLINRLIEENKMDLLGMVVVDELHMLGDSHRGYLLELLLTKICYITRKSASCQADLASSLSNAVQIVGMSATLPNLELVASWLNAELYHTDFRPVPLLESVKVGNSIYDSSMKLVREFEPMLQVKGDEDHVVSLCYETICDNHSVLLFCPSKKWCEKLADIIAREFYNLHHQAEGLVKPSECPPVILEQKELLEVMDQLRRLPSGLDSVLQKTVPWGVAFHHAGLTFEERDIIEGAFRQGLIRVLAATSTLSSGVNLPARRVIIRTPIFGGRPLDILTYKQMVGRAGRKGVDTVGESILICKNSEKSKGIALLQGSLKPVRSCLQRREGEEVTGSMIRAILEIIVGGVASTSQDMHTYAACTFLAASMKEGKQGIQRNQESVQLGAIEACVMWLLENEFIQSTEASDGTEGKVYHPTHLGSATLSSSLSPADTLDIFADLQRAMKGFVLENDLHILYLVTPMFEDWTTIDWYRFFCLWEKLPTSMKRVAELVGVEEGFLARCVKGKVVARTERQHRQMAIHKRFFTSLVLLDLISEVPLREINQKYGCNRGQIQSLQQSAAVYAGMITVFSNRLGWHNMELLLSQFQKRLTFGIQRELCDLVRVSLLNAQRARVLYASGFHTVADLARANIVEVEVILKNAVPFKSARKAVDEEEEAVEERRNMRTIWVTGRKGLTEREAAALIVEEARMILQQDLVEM
row,IC50 [nM],SMILES
1,< 100,"COc1cnc(Cl)cc1-c1cc(C)ncc1C(=O)Nc1nc2ccc(N3CCN(C)CC3=O)cc2s1 [Example 86, 2′-chloro-5′-methoxy-6-methyl-N-[6-(4-methyl-2-oxopiperazin-1-yl)-1,3-benzothiazol-2-yl]-[4,4′-bipyridine]-3-carboxamide]"
2,< 100,"COc1cnc(Cl)cc1-c1cc(C)ncc1C(=O)Nc1nc2cnc(C3=CCOCC3)nc2s1 [Example 87, 2′-chloro-N-[5-(3,6-dihydro-2H-pyran-4-yl)-[1,3]thiazolo[5,4-d]pyrimidin-2-yl]-5′-methoxy-6-methyl-[4,4′-bipyridine]-3-carboxamide]"
3,< 100,"COc1cnc(C(F)(F)F)cc1-c1cc(C)ncc1C(=O)Nc1nc2cnc(N3CCC(O)CC3)nc2s1 [Example 88, N-[5-(4-hydroxypiperidin-1-yl)-[1,3]thiazolo[5,4-d]pyrimidin-2-yl]-5′-methoxy-6-methyl-2′-(trifluoromethyl)-[4,4′-bipyridine]-3-carboxamide]"
4,< 100,COc1cnc(C(F)F)cc1-c1cc(C)ncc1C(=O)Nc1nc2cnc(N3CCOCC3)nc2s1 [Example 89]
5,< 100,"COc1cnc(Cl)cc1-c1cc(C)ncc1C(=O)Nc1nc2cnc(C(F)(F)F)nc2s1 [Example 90, 2′-chloro-5′-methoxy-6-methyl-N-[5-(trifluoromethyl)-[1,3]thiazolo[5,4-d]pyrimidin-2-yl]-[4,4′-bipyridine]-3-carboxamide]"
6,< 100,"COc1cnc(Cl)cc1-c1cc(C)ncc1C(=O)Nc1nc2cnc(C)nc2s1 [Example 91, 2′-chloro-5′-methoxy-6-methyl-N-{5-methyl-[1,3]thiazolo[5,4-d]pyrimidin-2-yl}-[4,4′-bipyridine]-3-carboxamide]"
7,< 100,"COc1cnc(C)cc1-c1cc(C)ncc1C(=O)Nc1nc2cnc(N3CCOCC3)nc2s1 [Example 92, 5′-methoxy-2′,6-dimethyl-N-[5-(morpholin-4-yl)-[1,3]thiazolo[5,4-d]pyrimidin-2-yl]-[4,4′-bipyridine]-3-carboxamide]"
8,< 100,"COc1cnc(F)cc1-c1cc(C)ncc1C(=O)Nc1nc2cnc(N3CCOCC3)nc2s1 [Example 93, 2′-fluoro-5′-methoxy-6-methyl-N-[5-(morpholin-4-yl)-[1,3]thiazolo[5,4-d]pyrimidin-2-yl]-[4,4′-bipyridine]-3-carboxamide]"
9,< 100,"COc1cnc(Cl)cc1-c1cc(C)ncc1C(=O)Nc1nc2cnc(N3CCCCC3=O)nc2s1 [Example 94, 2′-chloro-5′-methoxy-6-methyl-N-[5-(2-oxopiperidin-1-yl)-[1,3]thiazolo[5,4-d]pyrimidin-2-yl]-[4,4′-bipyridine]-3-carboxamide]"

# Same assay, conditions: Table B; compounds of Experimental Part B, in vitro; read-out: Polθ ATPase assay IC50
row,IC50 [nM],SMILES
1,< 100,"COc1cnc(Cl)cc1-c1cc(C)ncc1C(=O)Nc1nc2cnc(NC[C@@H](C)O)nc2s1 [Example 95, 2′-chloro-N-(5-{[(2R)-2-hydroxypropyl]amino}-[1,3]thiazolo[5,4-d]pyrimidin-2-yl)-5′-methoxy-6-methyl-[4,4′-bipyridine]-3-carboxamide]"
2,< 100,"COc1cnc(Cl)cc1-c1cc(C)ncc1C(=O)Nc1nc2cnc(NC[C@H](C)O)nc2s1 [Example 96, 2′-chloro-N-(5-{[(2S)-2-hydroxypropyl]amino}-[1,3]thiazolo[5,4-d]pyrimidin-2-yl)-5′-methoxy-6-methyl-[4,4′-bipyridine]-3-carboxamide]"
3,< 100,"COc1cnc(Cl)cc1-c1cc(C)ncc1C(=O)Nc1nc2cnc(N3CC(C)(OC)C3)nc2s1 [Example 97, 2′-chloro-5′-methoxy-N-[5-(3-methoxy-3-methylazetidin-1-yl)-[1,3]thiazolo[5,4-d]pyrimidin-2-yl]-6-methyl-[4,4′-bipyridine]-3-carboxamide]"
4,< 100,"COc1cnc(Cl)cc1-c1cc(C)ncc1C(=O)Nc1nc2c(Br)cccc2s1 [Example 99, N-(4-bromo-1,3-benzothiazol-2-yl)-2′-chloro-5′-methoxy-6-methyl-[4,4′-bipyridine]-3-carboxamide]"
5,< 100,"COc1cnc(Cl)cc1-c1cc(C)ncc1C(=O)Nc1nc2c(CCC(=O)N(C)C)cccc2s1 [Example 100, 2′-chloro-N-{4-[2-(dimethylcarbamoyl)ethyl]-1,3-benzothiazol-2-yl}-5′-methoxy-6-methyl-[4,4′-bipyridine]-3-carboxamide]"
6,< 100,"COc1cnc(Cl)cc1-c1cc(C)ncc1C(=O)Nc1nc2cc(OCC#N)ccc2s1 [Example 101, 2′-chloro-N-[5-(cyanomethoxy)-1,3-benzothiazol-2-yl]-5′-methoxy-6-methyl-[4,4′-bipyridine]-3-carboxamide]"
7,< 100,"CNC(=O)C(F)(F)Oc1ccc2sc(NC(=O)c3cnc(C)cc3-c3cc(Cl)ncc3OC)nc2c1 [Example 102, 2′-chloro-N-{5-[difluoro(methylcarbamoyl)Methoxy]-1,3-benzothiazol-2-yl}-5′-methoxy-6-methyl-[4,4′-bipyridine]-3-carboxamide]"
8,< 100,"COc1cnc(Cl)cc1-c1cc(C)ncc1C(=O)Nc1nc2cc(Br)ccc2s1 [Example 103, N-(5-bromo-1,3-benzothiazol-2-yl)-2′-chloro-5′-methoxy-6-methyl-[4,4′-bipyridine]-3-carboxamide]"
9,< 100,"COc1cnc(Cl)cc1-c1cc(C)ncc1C(=O)Nc1nc2cc(OC(F)(F)C(=O)N(C)C)ccc2s1 [Example 104, 2′-chloro-N-{5-[(dimethylcarbamoyl)difluoromethoxy]-1,3-benzothiazol-2-yl}-5′-methoxy-6-methyl-[4,4′-bipyridine]-3-carboxamide]"
10,< 100,"CNC(=O)c1ccc2sc(NC(=O)c3cnc(C)cc3-c3cc(Cl)ncc3OC)nc2c1 [Example 105, 2′-chloro-5′-methoxy-6-methyl-N-[5-(methylcarbamoyl)-1,3-benzothiazol-2-yl]-[4,4′-bipyridine]-3-carboxamide]"
11,< 100,"COc1ccc2sc(NC(=O)c3cnc(C)cc3-c3cc(Cl)ncc3OC)nc2c1 [Example 106, 2′-chloro-5′-methoxy-N-(5-methoxy-1,3-benzothiazol-2-yl)-6-methyl-[4,4′-bipyridine]-3-carboxamide]"
12,< 100,"COCCNC(=O)c1ccc2sc(NC(=O)c3cnc(C)cc3-c3cc(Cl)ncc3OC)nc2c1 [Example 107, 2′-chloro-5′-methoxy-N-{5-[(2-methoxyethyl)carbamoyl]-1,3-benzothiazol-2-yl}-6-methyl-[4,4′-bipyridine]-3-carboxamide]"
13,< 100,"COc1cnc(Cl)cc1-c1cc(C)ncc1C(=O)Nc1nc2c(OCC(=O)N(C)C)ncnc2s1 [Example 108, 2′-chloro-N-{7-[(dimethylcarbamoyl)methoxy]-[1,3]thiazolo[5,4-d]pyrimidin-2-yl}-5′-methoxy-6-methyl-[4,4′-bipyridine]-3-carboxamide]"
14,< 100,"COc1cnc(Cl)cc1-c1cc(C)ncc1C(=O)Nc1nc2cc(OCC3CCN(C(C)=O)CC3)ccc2s1 [Example 109, N-{5-[(1-acetylpiperidin-4-yl)methoxy]-1,3-benzothiazol-2-yl}-2′-chloro-5′-methoxy-6-methyl-[4,4′-bipyridine]-3-carboxamide]"
15,< 100,"COc1cnc(Cl)cc1-c1cc(C)ncc1C(=O)Nc1nc2cc(OCC(=O)N(C)C)ccc2s1 [Example 110, 2′-chloro-N-{5-[(dimethylcarbamoyl)methoxy]-1,3-benzothiazol-2-yl}-5′-methoxy-6-methyl-[4,4′-bipyridine]-3-carboxamide]"
16,< 100,"COc1cnc(Cl)cc1-c1cc(C)ncc1C(=O)Nc1nc2cc(OCCN3CCOCC3)ccc2s1 [Example 111, 2′-chloro-5′-methoxy-6-methyl-N-{5-[2-(morpholin-4-yl)ethoxy]-1,3-benzothiazol-2-yl}-[4,4′-bipyridine]-3-carboxamide]"
17,< 100,"COc1cnc(Cl)cc1-c1cc(C)ncc1C(=O)Nc1nc2cc(OC(C)C)ccc2s1 [Example 112, 2′-chloro-5′-methoxy-6-methyl-N-[5-(propan-2-yloxy)-1,3-benzothiazol-2-yl]-[4,4′-bipyridine]-3-carboxamide]"
18,100 to 1000,"COc1cnc(Cl)cc1-c1cc(C)ncc1C(=O)Nc1nc2cc(OCC3CS(=O)(=O)C3)ccc2s1 [Example 113, 2′-chloro-N-{5-[(1,1-dioxo-1-λ6-thietan-3-yl)methoxy]-1,3-benzothiazol-2-yl}-5′-methoxy-6-methyl-[4,4′-bipyridine]-3-carboxamide]"
19,100 to 1000,"CCOc1ccc2sc(NC(=O)c3cnc(C)cc3-c3cc(Cl)ncc3OC)nc2c1 [Example 114, 2′-chloro-N-(5-ethoxy-1,3-benzothiazol-2-yl)-5′-methoxy-6-methyl-[4,4′-bipyridine]-3-carboxamide]"
20,100 to 1000,"COc1cnc(Cl)cc1-c1cc(C)ncc1C(=O)Nc1nc2cc(OCCOC(F)(F)F)ccc2s1 [Example 115, 2′-chloro-5′-methoxy-6-methyl-N-{5-[2-(trifluoromethoxy)ethoxy]-1,3-benzothiazol-2-yl}-[4,4′-bipyridine]-3-carboxamide]"
21,< 100,"COc1cnc(C)cc1-c1cc(C)ncc1C(=O)Nc1nc2cnc(N3CCC(O)CC3)nc2s1 [Example 117, N-[5-(4-hydroxypiperidin-1-yl)-[1,3]thiazolo[5,4-d]pyrimidin-2-yl]-5′-methoxy-2′,6-dimethyl-[4,4′-bipyridine]-3-carboxamide]"
22,< 100,"COc1cnc(Cl)cc1-c1cc(C)ncc1C(=O)Nc1nc2cnc(NCCCCC(=O)O)cc2s1 [Example 119, 5-[(2-{2′-chloro-5′-methoxy-6-methyl-[4,4′-bipyridine]-3-amido}-[1,3]thiazolo[4,5-c]pyridin-6-yl)amino]pentanoic acid]"

row,SMILES,IC50 [nM]
1,"COc1cnc(C(F)(F)F)cc1-c1cc(CC(=O)N(C)C)ncc1C(=O)Nc1nc2cncnc2s1 [Example 116, 6-[(dimethylcarbamoyl)methyl]-5′-methoxy-N-{[1,3]thiazolo[5,4d]pyrimidin-2-yl}-2′-(trifluoromethyl)-[4,4′-bipyridine]-3-carboxamide]",< 100
